Earlier results, collected in US20070003642A1 (priority 2002, published 2007).

| Compound | solubility of daidzin (background statement) | solubility of isoflavones itself (stated as natural solubility, given as explanation) |
| --- | --- | --- |
| O=c1c(-c2ccc(O)cc2)coc2cc(O[C@@H]3O[C@H](CO)[C@@H](O)[C@H](O)[C@H]3O)ccc12 [daidzin] | about 3.3 mg/100 ml |  |
| isoflavones |  | about 5 mg/L |
